Here are results for one molecule from article PMC12756723, “Derivatives of the Cashew Nut Shell Liquid as Ligands of Pseudomonas aeruginosa Phenazine Protein D (PaPhzD)” (ACS Omega, 2025).

“Also recorded” adds a separate entry of the source.

For assay [1], the system named is P. aeruginosa PA14. The assay can be described thus: Biofilm assay (crystal violet). Format: cell-based, Pseudomonas aeruginosa. The settings on record: 100 μM, vs DMSO control. The method, then: Exponential phase cultures of P. aeruginosa PA14 were diluted to 5 × 10^5 colony forming units (CFU) in 48-well plates with LB containing each compound (1, 3, and 5) at 100 μM final concentrations or 0.1% DMSO (v/v) as a negative control. The plate was incubated steadily at 30 °C for 20 h inside a plastic bag to avoid evaporation. After the incubation, the OD600 of each well was measured in a plate reader (SpectraMax Paradigm). The planktonic bacteria were removed by turning the plate over the waste, followed by three steps of washing with distilled water. After drying, a solution of 1% crystal violet was added to each well and incubated at room temperature for 30 min to stain the attached cells forming a ring at the air–liquid interface. The crystal violet solution was removed, and the plate was washed using the same procedure. The dye was solubilized with 30% acetic acid for 30 min at room temperature. The Abs550 was measured, and the value was divided by the OD600 for each well. A total of 24 replicates were made for each treatment (6 wells per plate, four plates)

Assay [2] has as its system P. aeruginosa PA14. The assay can be described thus: Swarming assay. Format: cell-based, Pseudomonas aeruginosa. The settings on record: 100 μM. Here is the method: Swarming assays were performed as described, using 6-well plates. Briefly, 3 μL of culture (OD600 = 3.0) was inoculated in the center of modified M9 (20 mM NH4Cl; 12 mM Na2HPO4; 22 mM KH2PO4; 8.6 mM NaCl; 1 mM MgSO4; 1 mM CaCl2 2 H2O; 11 mM glucose; 0.5% casamino acids (Difco)) with 0.5% of Bacto-agar (Difco), containing the respective compounds (100 μM final concentration, diluted in DMSO). Plates were incubated inside plastic bags to avoid evaporation at 30 °C for 16 h. After this period, pictures were taken, and the area covered by the colonies was measured using ImageJ. All assays were performed with four replicates, and 0.1% DMSO (v/v) was employed as a negative control.

The test system of a further assay is KinA/SPOOF. Further details: method as in Kanojia et al. The settings on record: KinA/SPOOF from B. subtilis; ref Kanojia et al.; cited from earlier work.

A word on the IC50: it is the concentration that gives 50% inhibition.

Consider `CCCCCCCCCCCCCCCc1cccc(O)c1` [Compound 2], for which, in the assay with P. aeruginosa PA14 [1], the “Effect on biofilm formation” value is given as “without affecting bacterial growth or biofilm formation; also recorded: not significantly different the control”. Also, in the assay with P. aeruginosa PA14 [2], the “Swarming motility, % compared to control conditions” value stood at 65% and the “Swarming motility, Cohen's d vs control” value is on record as −0.91. Further, in the assay on KinA/SPOOF, the IC50 was > 500 µM.
